SMILES strings stand for the structures.

This data set is described as follows: Steady-state pharmacokinetic interaction study of the Compound and lopinavir/r (LPV/r). Conditions: healthy volunteers. Type of data set: in vivo, human.
Where [1] appears, read: the Compound 125 mg QD + LPV/r 400/100 mg BID vs the Compound/r 125/100 mg QD (coadministration:alone), 14-day periods, n = 14.

Consider `Cc1cccc(C)c1OCC(=O)N[C@@H](Cc1ccccc1)[C@@H](O)C[C@H](Cc1ccccc1)NC(=O)[C@H](C(C)C)N1CCCNC1=O` [LPV, (2S)—N-[(2S,4S,5S)-5-{[2-(2,6-dimethyl-phenoxy)acetyl]amino}-4-hydroxy-1,6-diphenyl-hexan-2-yl]-3-methyl-2-(2-oxo-1,3-diazinan-1-yl)butanamide, reference compound], for which, under “steady state”, the “LPV trough concentrations when coadministered with the Compound” value was “maintained above recommended target troughs” and the “exposures when coadministered with the Compound” value is “unaltered”.
Consider `CC(C)c1nc(CN(C)C(=O)NC(C(=O)NC(Cc2ccccc2)CC(O)C(Cc2ccccc2)NC(=O)OCc2cncs2)C(C)C)cs1` (stereo not shown) [RTV, 1,3-thiazol-5-ylmethyl[3-hydroxy-5-[3-methyl-2-[methyl-[(2-propan-2-yl-1,3-thiazol-4-yl)methyl]carbamoyl]amino-butanoyl]amino-1,6-diphenyl-hexan-2-yl]aminoformate, reference compound], for which, under “steady state”, the “exposures when coadministered with the Compound” value was “unaltered”.
Regarding `COc1cc2c(cc1Cc1cccc(Cl)c1F)c(=O)c(C(=O)O)cn2[C@H](CO)C(C)C` [the Compound, 6-(3-chloro-2-fluorobenzyl)-1-[(2S)-1-hydroxy-3-methylbutan-2-yl]-7-methoxy-4-oxo-1,4-dihydroquinoline-3-carboxylic acid], the “Compound exposures upon coadministration with LPV/r” value (steady state) is “substantially elevated”. Under setting [1], the “AUCtau % GMR (90% CI)” value is reported as 175%, the “Cmax % GMR (90% CI)” value came to 152% and the “Ctau % GMR (90% CI)” value turned out to be 238%.

The values above are taken from patent publication US20110009411A1, “THERAPEUTIC COMPOSITIONS AND THE USE THEREOF” (Gilead Sciences ,Inc., priority 2007, published 2011).
